The subject of assay [1] is Acetylcholine esterase (AchE). It counts as in vivo. Conditions: forebrain, scopolamine, mean ± standard error. The method, then: (§1) On the next day of the end of the passive avoidance test, the test material was administered, and the objects were allowed to stand in a home cage for 30 minutes. Subsequently, Scopolamine was intraperitoneally administered at a dose of 1 mg/kg, and then the objects were allowed to stand in a home cage for 30 minutes.
(§2) A brain tissue was separately separated and stored at −70° C. until analysis.
Acetylcholine esterase (AchE) activity was measured with a supernatant liquid obtained by adding a tissue protein extraction reagent (Biovision, CA, USA) to a forebrain tissue, crushing it, and centrifuging it, using an acetylcholinesterase activity assay kit (Biovision, CA, USA).

For the next assay, the system named is IL-1β. Put plainly: Inflammatory cytokine IL-1β in hippocampus (ELISA). It counts as in vivo, mouse. As to conditions: scopolamine, mean ± standard error. Here is the method:
as §1, §2
Inflammatory cytokine in a brain tissue was measured with a supernatant liquid obtained by adding a tissue protein extraction reagent (Biovision, CA, USA) to a brain tissue, crushing it, and centrifuging it, using an ELISA Kit (R&D System, MN, USA).

Each structure is given as a SMILES string. Several values for one entry are separate records, joined by “and”; a condition that tells them apart may be missing. Identical values can stand only once. Like-named read-outs stand apart in the source and are kept apart here.

Regarding `CCCCCCCCCCCCCCCC(=O)NC(CO)CO` [Neuromide, N-palmitoyl serinol], the “Acetylcholinesterase (AchE) activity” value in assay [1] (Neuromide 16 mg/kg oral) is 7.17 mU/mg tissue protein and 7.17 ± 1.75 mU/mg tissue protein; in assay [1] (Neuromide 40 mg/kg oral), 7.79 mU/mg tissue protein and 7.79 ± 1.93 mU/mg tissue protein; in assay [1] (Neuromide 100 mg/kg oral) it was 6.19 mU/mg tissue protein and 6.19 ± 1.84 mU/mg tissue protein. Also, the IL-1β is 194.7 pg/mg tissue protein and 194.7 ± 30.6 pg/mg tissue protein with IL-1β (Neuromide 16 mg/kg oral); 188.6 pg/mg tissue protein and 188.6 ± 32.4 pg/mg tissue protein in the assay with IL-1β (Neuromide 40 mg/kg oral); 151.5 pg/mg tissue protein and 151.5 ± 24.9 pg/mg tissue protein in the assay with IL-1β (Neuromide 100 mg/kg oral).

The record behind these values is patent US20240024261A1, “PHARMACEUTICAL COMPOSITION FOR IMPROVING COGNITIVE ABILITY OR ENHANCING MEMORY” (DR. RAYMOND LAB INC, priority 2020, published 2024).
